Our source for the IC50 values is patent US20080171732A1, “New Pyridine Analogues IX 519” (AstraZeneca AB, priority 2007, published 2008).

The assay has as its target T1, P2Y12 receptor (Homo sapiens, UniProt Q9H244).
T1 construct: expressed in transfected cells; host or cells: CHO cells (membranes)
Description: Functional inhibition of 2-Me-S-ADP induced P2Y12 signalling (35S-GTPγS, cell membranes from P2Y12 transfected CHO-cells). The class given is biochemical. The note with it: EC80 concentration of agonist 2-methyl-thio-adenosine diphosphate, 30° C., 45 min. The method, then: Functional inhibition of-the P2Y12 receptor can be measured by in vitro assays using cell membranes from P2Y12 transfected CHO-cells, the methodology is indicated below.
(§1) Functional inhibition of 2-Me-S-ADP induced P2Y12 signalling: 5 μg of membranes were diluted in 200 μl of 200 mM NaCl, 1 mM MgCl2, 50 mM HEPES (pH 7.4), 0.01% BSA, 30μg/ml saponin and 10 μM GDP. To this was added an EC80 concentration of agonist (2-methyl-thio-adenosine diphosphate), the required concentration of test compound and 0.1 μCi ^35S-GTPγS. The reaction was allowed to proceed at 30° C. for 45 min. Samples were then transferred on to GF/B filters using a cell harvester and washed with wash buffer (50 mM Tris (pH 7.4), 5 mM MgCl2, 50 mM NaCl). Filters were then covered with scintilant and counted for the amount of ^35S-GTPγS retained by the filter. Maximum activity was that determined in the presence of the agonist and minimum activity in the absence of the agonist following subtraction of the value determined for non-specific activity. The effect of compounds at various concentrations was plotted according to the equation
y=A+((B−A)/(1+((C/x)̂D)))
and IC50 estimated where • A is the bottom plateau of the curve i.e. the final minimum y value • B is the top of the plateau of the curve i.e. the final maximum y value • C is the x value at the middle of the curve. This represents the log EC50 value when A+B=100 • D is the slope factor. • x is the original known x values. • Y is the original known y values.
as §1, with “30 μg/ml” for “30μg/ml”, “0. 1” for “0.1”

For orientation: IC50 means the concentration that inhibits the measured activity by half. A lower IC50 goes with higher potency.

T1 sequence (Q9H244 whole entry): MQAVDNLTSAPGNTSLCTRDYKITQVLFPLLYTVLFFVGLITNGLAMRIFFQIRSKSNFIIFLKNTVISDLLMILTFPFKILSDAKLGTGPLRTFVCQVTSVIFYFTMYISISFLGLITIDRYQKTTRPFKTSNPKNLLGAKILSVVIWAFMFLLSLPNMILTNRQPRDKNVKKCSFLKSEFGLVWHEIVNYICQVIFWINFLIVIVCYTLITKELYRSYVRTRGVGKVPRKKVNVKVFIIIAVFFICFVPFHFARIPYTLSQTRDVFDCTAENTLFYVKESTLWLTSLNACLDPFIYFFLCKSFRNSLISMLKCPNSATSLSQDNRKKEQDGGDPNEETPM

`CCOC(=O)c1cc(C#N)c(N2CC(C(=O)NS(=O)(=O)Cc3ccccc3Cl)C2)nc1OC` [Example 22, Ethyl6-(3-{[(2-chlorobenzyl)sulfonyl]carbamoyl}azetidin-1-yl)-5-cyano-2-methoxynicotinate] yielded a half-inhibitory concentration (IC50) of 0.012 µM.

Molecule `CCOC(=O)c1cc(C#N)c(N2CCC(C(=O)NS(=O)(=O)Cc3ccccc3)CC2)nc1Cn1ccnn1` [Example 48] showed a half-maximal inhibitory concentration (IC50) of 0.032 µM.

With `CCOC(=O)c1cc(C#N)c(N2CCC(C(=O)NS(=O)(=O)Cc3ccccc3)CC2)nc1Cn1ccnc1` [Example 49, Ethyl6-{4-[(benzylsulfonyl)carbamoyl]piperidin-1-yl}-5-cyano-2-(1H-imidazol-1-ylmethyl)nicotinate], the IC50 turned out to be 0.073 µM.

`CCOC(=O)c1cc(C#N)c(N2CC(C(=O)NS(=O)(=O)Cc3cccc(F)c3F)C2)nc1OC` [Example 32, Ethyl5-cyano-6-(3-{[(2,3-difluorobenzyl)sulfonyl]carbamoyl}azetidin-1-yl)-2-methoxynicotinate] gave a half-maximal inhibitory concentration (IC50) of 0.083 µM.

`CCOC(=O)c1cc(C#N)c(N2CC(C(=O)NS(=O)(=O)Cc3ccc(C(F)(F)F)cc3)C2)nc1OC` [Example 26, Ethyl5-cyano-2-methoxy-6-[3-({[4-(trifluoromethyl)benzyl]sulfonyl}carbamoyl)azetidin-1-yl]nicotinate] displayed an IC50 of 0.012 µM.

In turn, `CCOC(=O)c1cc(Cl)c(N2CCC(C(=O)NS(=O)(=O)Cc3ccc(Cl)cc3)CC2)nc1SC` [Example 43, Ethyl5-chloro-6-(4-{[(4-chlorobenzyl)sulfonyl]carbamoyl}piperidin-1-yl)-2-(methylthio)nicotinate] showed a concentration for half-maximal inhibition (IC50) of 0.132 µM.

`CCCC(=O)c1cc(C#N)c(N2CCC(C(=O)NS(=O)(=O)Cc3ccc(F)cc3)CC2)nc1OC` [Example 51, 1-(5-Butyryl-3-cyano-6-methoxypyridin-2-yl)-N-[(4-fluorobenzyl)sulfonyl]piperidine-4-carboxamide] showed an IC50 of 0.05 µM.

Take `CCOC(=O)c1cc(C#N)c(N2CC(C(=O)NS(=O)(=O)Cc3ccccc3)C2)nc1OC` [Example 2, Ethyl6-{3-[(benzylsulfonyl)carbamoyl]azetidin-1-yl}-5-cyano-2-methoxynicotinate]: the IC50 worked out at 0.018 µM.

Regarding `CCOC(=O)c1cc(C#N)c(N2CC(C(=O)NS(=O)(=O)Cc3ccc(F)c(F)c3)C2)nc1OC` [Example 27, Ethyl5-cyano-6-(3-{[(3,4-difluorobenzyl)sulfonyl]carbamoyl}azetidin-1-yl)-2-methoxynicotinate], the IC50 was 0.035 µM.

As for `CCOC(=O)c1cc(C#N)c(N2CCC(C(=O)NS(=O)(=O)Cc3ccccc3)CC2)nc1Cn1cncn1` [Example 47, Ethyl6-{4-[(benzylsulfonyl)carbamoyl]piperidin-1-yl}-5-cyano-2-(1H-1,2,4-triazol-1-ylmethyl)nicotinate], the IC50 is 0.077 µM. This IC50 lies about 2.2-fold higher than the previous one.

Regarding `CCOC(=O)c1cc(C#N)c(N2CC(C(=O)NS(=O)(=O)c3ccccc3)C2)nc1OC` [Example 20, Ethyl5-cyano-2-methoxy-6-{3-[(phenylsulfonyl)carbamoyl]azetidin-1-yl}nicotinate], the IC50 came to 0.102 µM. The IC50 values of the last two molecules are within 1.5-fold of each other.

The molecule `CCOC(=O)c1cc(C#N)c(N2CC(C(=O)NS(=O)(=O)Cc3cccc(F)c3)C2)nc1OC` [Example 23, Ethyl5-cyano-6-(3-{[(3-fluorobenzyl)sulfonyl]carbamoyl}azetidin-1-yl)-2-methoxynicotinate] showed a half-maximal inhibitory concentration (IC50) of 0.044 µM.

In turn, `CCOC(=O)c1cc(C#N)c(N2CC(C(=O)NS(=O)(=O)Cc3ccccc3)C2)nc1CO` [Example 37, Ethyl6-{3-[(benzylsulfonyl)carbamoyl]azetidin-1-yl}-5-cyano-2-(hydroxymethyl)nicotinate] had an IC50 of 0.047 µM. The IC50 values of the last two molecules are within 1.5-fold of each other.

For the molecule `CCOC(=O)c1cc(C#N)c(N2CC(C(=O)NS(=O)(=O)Cc3ccc(F)cc3)C2)nc1OCC` [Example 39, Ethyl5-cyano-2-ethoxy-6-(3-{[(4-fluorobenzyl)sulfonyl]carbamoyl}azetidin-1-yl)nicotinate], the IC50 came out at 0.032 µM.

`CCOC(=O)c1cc(C#N)c(N2CC(C(=O)NS(=O)(=O)Cc3ccccc3)C2)nc1COCc1ccc(OC)c(OC)c1` [Example 42, Ethyl6-{3-[(benzylsulfonyl)carbamoyl]azetidin-1-yl}-5-cyano-2-{[(3,4-dimethoxybenzyl)oxy]methyl}nicotinate] came in with a half-inhibitory concentration (IC50) of 0.135 µM.

Regarding `CCOC(=O)c1cc(C#N)c(N2CCC(C(=O)NS(=O)(=O)Cc3ccccc3)CC2)nc1COCc1ccccc1` [Example 36, Ethyl2-[(benzyloxy)methyl]-6-{4-[(benzylsulfonyl)carbamoyl]piperidin-1-yl}-5-cyanonicotinate], the half-maximal inhibitory concentration (IC50) came out at 0.055 µM. This IC50 lies about 2.5-fold lower than the previous one.

In turn, `CCOC(=O)c1cc(C#N)c(N2CC(C(=O)NS(=O)(=O)Cc3ccc(Cl)cc3Cl)C2)nc1OC` [Example 28, Ethyl5-cyano-6-(3-{[(2,4-dichlorobenzyl)sulfonyl]carbamoyl}azetidin-1-yl)-2-methoxynicotinate] showed an IC50 of 0.005 µM.

`CCOC(=O)c1cc(C#N)c(N2CCC(C(=O)NS(=O)(=O)Cc3cccc(F)c3F)CC2)nc1OC` [Example 19, Ethyl5-cyano-6-(4-{[(2,3-difluorobenzyl)sulfonyl]carbamoyl}piperidin-1-yl)-2-methoxynicotinate]: the half-inhibitory concentration (IC50) was 0.031 µM. Against the preceding molecule, the IC50 is about 6.2-fold higher.

Take `COc1nc(N2CCC(C(=O)NS(=O)(=O)Cc3ccc(F)cc3)CC2)c(C#N)cc1C(=O)OC(C)C` [Example 56, Isopropyl5-cyano-6-(4-{[(4-fluorobenzyl)sulfonyl]carbamoyl}piperidin-1-yl)-2-methoxynicotinate]: the IC50 was determined as 0.025 µM.

With `CCOC(=O)c1cc(C#N)c(N2CC(C(=O)NS(=O)(=O)Cc3ccc(F)cc3F)C2)nc1OCC` [Example 41, Ethyl5-cyano-6-(3-{[(2,4-difluorobenzyl)sulfonyl]carbamoyl}azetidin-1-yl)-2-ethoxynicotinate], the IC50 worked out at 0.087 µM.

Turning to `CCOC(=O)c1cc(C#N)c(N2CC(C(=O)NS(=O)(=O)Cc3ccc(Cl)cc3F)C2)nc1OC` [Example 31, Ethyl6-(3-{[(4-chloro-2-fluorobenzyl)sulfonyl]carbamoyl}azetidin-1-yl)-5-cyano-2-methoxynicotinate], the IC50 is 0.005 µM.

As for `CCOC(=O)c1cc(Cl)c(N2CCC(C(=O)NS(=O)(=O)Cc3ccccc3)CC2)nc1Cl` [Example 59, Ethyl6-{4-[(benzylsulfonyl)carbamoyl]piperidin-1-yl}-2,5-dichloronicotinate], the IC50 worked out at 0.033 µM. Compared with the last molecule, the IC50 is about 6.6-fold higher.

Molecule `CCOC(=O)c1cc(C#N)c(N2CCC(C(=O)NS(=O)(=O)Cc3ccc(Cl)cc3Cl)CC2)nc1OC` [Example 15, Ethyl5-cyano-6-(4-{[(2,4-dichlorobenzyl)sulfonyl]carbamoyl}piperidin-1-yl)-2-methoxynicotinate] gave a half-maximal inhibitory concentration (IC50) of 0.022 µM.

The molecule `CCOC(=O)c1cc(C#N)c(N2CCC(C(=O)NS(=O)(=O)Cc3ccc(F)cc3F)CC2)nc1OC` [Example 16, Ethyl5-cyano-6-(4-{[(2,4-difluorobenzyl)sulfonyl]carbamoyl}piperidin-1-yl)-2-methoxynicotinate] had a half-inhibitory concentration (IC50) of 0.008 µM.

`CCCC(=O)c1cc(C#N)c(N2CCC(C(=O)NS(=O)(=O)Cc3ccccc3)CC2)nc1OC` [Example 53, N-(Benzylsulfonyl)-1-(5-butyryl-3-cyano-6-methoxypyridin-2-yl)piperidine-4-carboxamide] yielded a half-maximal inhibitory concentration (IC50) of 0.076 µM.

Turning to `CCOC(=O)c1cc(C#N)c(N2CCC(C(=O)NS(=O)(=O)Cc3ccccc3F)CC2)nc1OC` [Example 8, Ethyl5-cyano-6-(4-{[(2-fluorobenzyl)sulfonyl]carbamoyl}piperidin-1-yl)-2-methoxynicotinate], the IC50 is 0.01 µM.

`CCOC(=O)c1cc(C#N)c(N2CCC(C(=O)NS(=O)(=O)Cc3ccccc3)CC2)nc1CCOC` [Example 45, Ethyl6-{4-[(benzylsulfonyl)carbamoyl]piperidin-1-yl}-5-cyano-2-(2-methoxyethyl)nicotinate]: the IC50 was 0.06 µM.

On to “Ethyl5-cyano-6-(3-{[(2-fluorobenzyl)sulfonyl]carbamoyl}azetidin-1-yl)-2-methoxynicotinate [Example 21]”, for which the IC50 came to 0.015 µM. This IC50 lies about 4-fold lower than the previous one.

`CCOC(=O)c1cc(C#N)c(N2CC(C(=O)NS(=O)(=O)Cc3ccc(F)cc3F)C2)nc1OC` [Example 29, Ethyl5-cyano-6-(3-{[(2,4-difluorobenzyl)sulfonyl]carbamoyl}azetidin-1-yl)-2-methoxynicotinate] came in with a concentration for half-maximal inhibition (IC50) of 0.01 µM.
